Assay results: patent US10064417B2, “Milk filtration devices and methods for filtering” (Janssen Pharmaceutica NV, priority 2015, dated 2018)
Like-named read-outs stand apart in the source and are kept apart here.

What was measured:
[1] = cited from earlier work
[2] = cited from earlier work; remark: listed apart in the source
[3] = Fraction of ketamine in the neutral state at various pHs; format: physicochemical; conditions: mother's milk, pH about 7.2-7.4, estimated from Table I
[4] = cited from earlier work; remark: listed apart in the source
orosomucoid = conditions: human blood; cited from earlier work
[5] = cited from earlier work; remark: listed apart in the source

SMILES: N=C(N)NCCC[C@H](N)C(=O)O [Arginine]
- Log P [1]: −1.7

SMILES: N[C@@H](Cc1c[nH]cn1)C(=O)O [Histidine]
- pKa [2]: 9.1

SMILES: CNC1(c2ccccc2Cl)CCCCC1=O (stereo not shown) [Ketamine]
- neutral fraction of ketamine in milk [3]: 30-40%
- Fraction of neutral ketamine ([4]; pH 7.1): 28.0%
- Fraction of neutral ketamine ([4]; pH 7.4): 44.3%
- Fraction of neutral ketamine ([4]; pH 7.5): 50.0%

SMILES: NCCCC[C@H](N)C(=O)O [Lysine]
- Log P [1]: −3.2

SMILES: O=C(O)[C@@H]1CCCN1 [Proline]
- Log P [1]: −2.6

SMILES: Cc1ncc(CO)c(CO)c1O [Pyridoxine]
- pKa [2]: 8.7

SMILES: Cc1cc2nc3c(=O)[nH]c(=O)nc-3n(C[C@H](O)[C@H](O)[C@H](O)CO)c2cc1C [Riboflavin]
- Log P [1]: −0.92

SMILES: CN[C@H]1CC[C@@H](c2ccc(Cl)c(Cl)c2)c2ccccc21 [Sertraline]
- Log P [1]: 5.10
- bound to orosomucoid (orosomucoid): 95%
- bound in mother's milk [5]: about 80%

SMILES: NCCS(=O)(=O)O [Taurine]
- Log P [1]: −1.9
- pKa [2]: 9.0
- pKa ([2]; room temperature): about 9

SMILES: Cc1ncc(C[n+]2csc(CCO)c2C)c(N)n1 [Thiamine]
- Log P [1]: −3.1
- Log P ([1]; listed as thiamine): ~−3

SMILES: CNCCC(Oc1ccc(C(F)(F)F)cc1)c1ccccc1 (stereo not shown) [fluoxetine, reference compound]
- pKa ([2]; room temperature): about 10.3
